Assay results: US20260250262A1, “NEW COMPOUND AND PHARMACEUTICAL COMPOSITION COMPRISING SAME” (SAMJIN PHARMACEUTICAL CO., LTD., priority 2023, published 2026)

Columns and labels:
[1] = target: T1, Recombinant NAMPT protein (Homo sapiens, UniProt P43490); assay: NAMPT enzyme inhibition assay (BPS Bioscience NAMPT Inhibitor Screening Assay Kit); format: biochemical; conditions: 30 min pre-incubation, 2 h at 30° C., fluorescence
T1 construct: purchased BPS bioscience #7176-1
Method: Recombinant NAMPT protein was added to each well of a black 96-well plate, and dilution buffer was added to a blank well instead of NAMPT protein. A 5× concentrated compound solution was added and pre-incubated at room temperature (approximately 22° C.) for 30 minutes before the start of the reaction so that the compound and protein might bind before the enzyme reaction. At this time, the concentration of NAMPT protein was adjusted and used according to the enzyme activity of each protein lot within the final concentration range of 4-10 ng/μl, and the test compound was serially diluted at a ratio of 1:3 from 1000 nM to 1 nM, and experiments were conducted with n=2 for about seven concentrations. […] The NAMPT enzyme activity (%) was calculated by subtracting the measurement value of the blank well without NAMPT protein from the measurement value of all wells, and then taking the measurement value of the control well without the compound as 100%.

[2] = test system: HCT-116 cell lines; assay: Cellular NAD measurement assay (NAD/NADH-Glo); format: cell-based; conditions: Homo sapiens; HCT-116, 24 hours treatment, intracellular NAD+/NADH level
Method: With regard to HCT-116 cell lines, the decrease in intracellular NAD+ and NADH levels due to the inhibition of NAMPT enzyme activity by compounds was evaluated using NAD/NADH-Glo™ Assay (Promega, G9072) from Promega. The cells were incubated using DMEM (Gibco, 11995-065) medium containing 10% FBS. The HCT-116 cells were incubated for 24 hours after being distributed at a density of 2,500 cells per well in a 96-well plate, and were treated with the drugs using serum-free DMEM. First, the compounds were dissolved in 100% dimethyl sulfoxide (DMSO), and then diluted in the culture medium so that the final concentration of DMSO might reach 0.5%, and treated with the drugs. The final concentration range of the compounds was 0.1 nM to 100 nM. After that, they were further incubated for 24 hours under conditions of 37° C. and CO2 5%. To conduct the NAD/NADH-Glo™ Assay, the culture medium of drug-treated cells was removed, 50 μL of DPBS was treated per well, and left at room temperature for five minutes. The required amount of NAD/NADH-Glo™ Detection Reagent (Reconstituted Luciferin Detection Reagent 1 mL, Reductase 5 μL, Reductase Substrate 5 μL, NAD Cycling Enzyme 5 μL, NAD Cycling Substrate 25 μL) was prepared according to the manufacturer's manual and treated in an amount of 50 μL per well. After incubating for two minutes at 400 rpm in a plate shaker for cell lysis, the cells were incubated for 30 minutes at room temperature, and luminescence was measured. NAD+/NADH levels were calculated by subtracting the measurement value of the blank well without cells from the measurement value of all wells and taking the 0.5% DMSO-treated control as 100%.

[3] = test system: HCT-116 (colorectal cancer); assay: Tumor cytotoxicity assay (MTT), HCT-116; format: cell-based; conditions: Homo sapiens, HCT-116, 72 hours
Method: (§1) First, the compounds were prepared in 100% dimethyl sulfoxide (DMSO) at concentrations of 0.02 μM to 200 μM, and then diluted in the culture medium so that the final concentration of DMSO might reach 0.5%, and treated with the drugs. The final concentration range of the compounds was 0.1 nM to 1000 nM. After that, they were further incubated for 72 hours under conditions of 37° C. and CO2 5%. […] The cell viability (%) was relatively determined by subtracting the reference 650 nm optical density (O.D.) from the 570 nm O.D., and the 0.5% DMSO-treated control was set as 100% as the standard.

[4] = test system: NCI-N87 (gastric cancer); assay: Tumor cytotoxicity assay (MTT), NCI-N87; format: cell-based; conditions: Homo sapiens, NCI-N87, 72 hours
Method: as §1

T1 sequence (P43490 whole entry): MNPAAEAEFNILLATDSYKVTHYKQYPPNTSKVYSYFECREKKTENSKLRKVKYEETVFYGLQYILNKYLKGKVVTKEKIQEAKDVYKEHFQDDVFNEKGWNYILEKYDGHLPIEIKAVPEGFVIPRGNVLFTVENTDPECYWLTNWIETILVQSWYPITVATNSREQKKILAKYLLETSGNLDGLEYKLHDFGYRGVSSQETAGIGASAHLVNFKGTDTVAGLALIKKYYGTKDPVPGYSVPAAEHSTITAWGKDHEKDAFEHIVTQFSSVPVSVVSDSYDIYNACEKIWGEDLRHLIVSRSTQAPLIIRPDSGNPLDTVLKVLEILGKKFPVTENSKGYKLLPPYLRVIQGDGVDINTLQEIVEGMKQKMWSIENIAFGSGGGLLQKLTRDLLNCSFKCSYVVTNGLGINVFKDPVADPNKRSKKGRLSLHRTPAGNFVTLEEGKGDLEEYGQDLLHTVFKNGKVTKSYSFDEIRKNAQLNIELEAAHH

| SMILES | IC50 [1] [nM] | IC50 [2] [nM] | CC50 [3] [nM] | CC50 [4] [nM] |
| --- | --- | --- | --- | --- |
| Cc1nc2cc(-c3ccc(NC(=O)NCCc4cccnc4)cc3C#Cc3ccc(F)cc3)ccc2c(=O)[nH]1 [Compound 14] | < 500 | ≤ 10 | < 30 | < 30 |
| O=C(NCCc1cccnc1)Nc1ccc(-c2ccncc2)c(C#Cc2ccc(C(=O)NCCN3CCNCC3)cc2)c1 [Compound 47] | < 500 | 10 to 1000 | < 30 | 30 to 100 |
| Cc1nc2cc(-c3ccc(NC(=O)NCCc4cccnc4)cc3C#Cc3ccc(F)cc3)ccc2c(=O)n1CCN [Compound 186] | < 500 | ≤ 10 | < 30 | 30 to 100 |
| O=C(NCc1ccn2ccnc2c1)Nc1ccc(-c2ccncc2)c(C#Cc2ccc(C3CCNCC3)cc2)c1 [Compound 187] | < 500 | ≤ 10 | < 30 | < 30 |
